We go through 1 substance from publication PMC7274078, “Brain Endothelial Cells Regulate Glucagon-Like Peptide 1 Entry Into the Brain via a Receptor-Mediated Process” (Frontiers in Physiology, 2020).

Data set [1] in a line: GLP-1 concentrations in plasma and CSF (total GLP-1 ELISA). The following applies: rat, systemic infusion 30 pmol/kg/min for 10 min, n = 4. The data set is classed as in vivo. The method, then: (§1) Each rat received a systemic infusion of either saline or GLP-1 (Abcam, Cambridge, United Kingdom) (30 pmol/kg/min) via the jugular vein catheter for 10 min. Plasma samples were then collected and rats sacrificed via anesthetic overdose. Cerebral spinal fluid (CSF) and various brain regions (cerebellum, cortex, hippocampus, hypothalamus, and brain stem) were collected for further assays. Cerebral microvessels were isolated as described ([Austin et al., 2010]). Briefly, brain tissue was disrupted with a razor blade followed by passing through an 18G needle. […]
(§2) All plasma and CSF samples collected during the study were frozen immediately and stored at −80°C until further analysis of GLP-1 concentration using a total GLP-1 ELISA kit (Merck Millipore, Billerica, MA, United States) ([Knezovic et al., 2018]). To measure PKA activity in brain tissue, cerebral microvessels, or cultured cells, samples were homogenized and lysed in PKA lysis buffer and activity determined using a Pep Tag® non-radioactive protein kinase assay kit (Promega, Madison, WI, United States) ([Christian et al., 2011]). […]
(§3) Each rat received a systemic infusion of either saline or GLP-1 (30 pmol/kg/min) for 10 min, GLP-1 concentrations in CSF and plasma were determined and cerebral microvessels were isolated. […] (D) Quantitative analysis of PKA activity (n = 6, *p < 0.05, Student’s t test).

The subject of data set [2] is DPP4. The note with it: plasma, degradation by DPP4; no reference given; cited from earlier work. The text has this: GLP-1 receptors are expressed in multiple brain areas in rodents, primates, and humans and they are involved in learning, neuroprotection and regulation of appetite and satiety ([Wei and Mojsov, 1995]; [During et al., 2003]; [Richards et al., 2014]). Global knockout of the GLP-1 receptor in mice impairs synaptic plasticity and memory formation ([Abbas et al., 2009]). […] Indeed, pre-treatment of animals w ...

Data set [3] deals with protein kinase A (PKA). The data set can be described thus: PKA activity in brain regions and cerebral microvessels after GLP-1 infusion. The data set is classed as in vivo, rat. The method, then: as §1, with “needle. Vessel fragments were harvested using dextran-gradient centrifugation, then collected on a 20 μm pore filter, washed to remove cell debris, and reconstituted in buffer. This was followed by passing through a 100 μm pore size filter. Brain vessels that can pass through the 100 μm filter were considered as cerebral microvessel and used for protein kinase A (PKA) activity assay.” for “needle.”
as §2
FIGURE 2 GLP-1 infusion increases PKA activity in various brain regions in both normal and vagotomized rats. […] PKA activities in various brain regions were determined in normal rats (A,B) and vagotomized rats (D,E). […] (B,E), Quantitative analysis (B, n = 7; *p < 0.05 vs. saline infusion, Student’s t test) (E, n = 6; *p < 0.05 vs. saline infusion, Student’s t test).
as §3

Data set [4] can be described thus: Microvascular perfusion in hippocampus and skeletal muscle (contrast-enhanced ultrasound), with blood glucose and MAP. The data set is classed as in vivo. The following applies: rat. The procedure: After a 30–45 min baseline period to ensure hemodynamic stability and a stable level of anesthesia, baseline microvascular blood volume (MBV) and microvascular flow velocity (MFV), in the hippocampus and skeletal muscle were determined using contrast-enhanced ultrasound (CEU), as described previously ([Chai et al., 2010]; [Fu et al., 2013], [2017]). In brief, microbubbles (Definity; Lantheus Medical Imaging) were diluted with normal saline (1:10 vol:vol) and infused intravenously at a rate of 0.8 mL/h. Once the systemic microbubble concentrations reached steady state (∼6 min), high-power pulse-inversion ultrasound (HDI-5000; Philips Ultrasound) was used to image the microbubble signals in the hippocampus and the proximal adductor muscle group (adductor magnus and semimembranosus). Intermittent imaging was performed at pulsing intervals ranging from 0.5 to 10 s. At least three images were acquired at each pulsing interval, and the images obtained at 0.5 s were used as background. Pulsing interval vs. background-subtracted video intensity was fitted to the function y = A (1 − e^−βt, with y being video intensity at pulsing interval t. A as the plateau video intensity measures MBV and β represents the rate of microvascular filling (i.e., MFV). Microvascular blood flow (MBF) was calculated by multiplying MBV and MFV. All CEU images were analyzed using the QLAB software (Philips Medical Systems, Andover, MA, United States).
After the baseline hippocampal and muscle microvascular parameters were obtained, rats then received a continuous intravenous infusion of either saline or GLP-1 (30 pmol/kg/min) for 120 min. Hippocampal microvascular parameters (MBV, MFV, and MBF) were again determined every 30 min and muscle microvascular parameters at 120 min using CEU. Throughout the study, mean arterial blood pressure (MAP) was monitored via a sensor connected to the carotid catheter (Harvard Apparatus, Holliston, MA, United States, and AD Instruments, Inc., Colorado Springs, CO, United States). Inactin was infused at a variable rate to maintain steady levels of anesthesia and blood pressure throughout the study. Carotid arterial blood glucose concentrations were determined every 30 min using a Contour Next glucometer (BAYER). At the end of each study the rat was euthanized by an overdose of inactin.
FIGURE 8 GLP-1 infusion increases muscle but not […] microvascular perfusion. Each rat received a systemic infusion of saline or GLP-1 at 30 pmol/kg/min for 120 min and MBV, MFV and MBF were determined using contrast-enhanced ultrasound in both […] (A,B,C) and muscle (D,E,F) (n = 6, *p < 0.05, vs. control, Student’s t test).

Setting [5] is: 30 pmol/kg/min i.v. for 120 min, contrast-enhanced ultrasound, n = 6.
The mark [6] stands for this setting: 30 pmol/kg/min i.v. for 120 min, n = 6.
Setting [7] is: 30 pmol/kg/min i.v., at 120 min, contrast-enhanced ultrasound, n = 6, p < 0.05.

Glucagon-like peptide 1 [GLP-1]: in data set [1], the “levels of GLP-1 in CSF” value is “remained undetectable” and the “plasma GLP-1 concentrations” value is “markedly increased”. Moreover, in data set [2], the half-life is about 2 min. Besides, the “PKA activity in brain microvessels” value in data set [3] (isolated cerebral microvessels, rat, GLP-1 30 pmol/kg/min for 10 min, n = 6, p < 0.05) is “acutely increased”. Also, the “PKA activities in all brain regions” value in data set [3] (normal rats, GLP-1 30 pmol/kg/min infusion for 10 min vs saline, n = 7, p < 0.05) was “significantly increased”. Also, the “PKA activity in various brain regions” value in data set [3] (sham-operated and sub-diaphragmatic vagotomized rats, GLP-1 30 pmol/kg/min for 10 min, n = 6) is “rapid and robust increase”. In data set [4] (setting [5]), the “hippocampal MBF” value is “did not alter”, the “hippocampal MBV” value is on record as “did not alter” and the “hippocampal MFV” value is given as “did not alter”. In data set [4] (setting [6]), the “Blood glucose during the study” value is “remained stable” and the “MAP during the study” value is recorded as “remained stable”. Also, the MFV in muscle entry in data set [4] (30 pmol/kg/min i.v., at 120 min, contrast-enhanced ultrasound, n = 6) is “without affecting”. In addition, in data set [4] (setting [7]), the MBF in muscle entry is reported as “markedly increase” and the MBV in muscle result is “markedly increase”.
